Laboratory results published in patent US20050176806A1, “Use of substituted cyanopyrrolidines and combination preparations containing them for treating hyperlipidemia and associated diseases” (priority 2002, published 2005).

Tested on: patients with a diagnosis of Type 2 diabetes mellitus
Test: Evaluation of the Effects of Compound IC on Human Lipid Profiles
Format: in vivo
Conditions: compound IC 100 mg or 200 mg OD for four weeks, compared to placebo
Text: Evaluation of the Effects of Compound IC on Human Lipid Profiles Sixty (60) patients comprised of male and non-fertile female patients aged at least 30 years with a diagnosis of Type 2 diabetes mellitus of at least three months duration, who have been treated with diet alone for at least one month prior to study entry were selected. The study was broken down into two periods. Period 1 was the four weeks prior to the beginning of the study, with period 2 being four weeks and being the actual study period when patients were treated with compound IC. Accordingly, study entry was Week −4 and the endpoint was after the fourth week of Period 2. Patients were randomized in a ratio of 1:1:1 as follows: compound IC at 200 mg once a day (OD), compound IC at 100 mg OD and placebo. The patients received compound IC 30 minutes before breakfast. There were 5 test days in the study. Patients attended as outpatients for fasting blood sampling at Week −4 (study entry), Week −2 and Week 2 and as inpatients for 24 hours on Week 0 (=baseline) and Week 4 (=endpoint). On the two inpatient test days, the total caloric intake of breakfast, lunch and dinner was standardized and standard test meals were administered in place of breakfast and dinner. Triglycerides, total cholesterol and lipid fractions (LDL, VLDL and HDL) were measured during 24 hours following the breakfast standard meal. […] On the two inpatient test days, patients fasted for at least 7 hours, i.e., no food or drinks (except water) after midnight on the day before the scheduled visit, and attended the clinic at 07.00 h. On each of the two test days, the total caloric intake during 24 hours was standardized and standard test meals were administered for breakfast (about 08.00 h) and dinner (about 18.00 h). Lunch was taken at approximately 13.00 h. On Day 1, no compound IC was administered but at Week 4, patients took compound IC as normal, 30 minutes before the standard breakfast. Triglycerides, total cholesterol and lipid fractions (LDL, VLDL and HDL) were evaluated. Triglycerides, total cholesterol and HDL were measured and LDL and VLDL calculated according to the method of Friedewald et al., “Estimation of the Concentration of Low-Density Lipoprotein Cholesterol Without the Use of the Preparative Centrifuge”, Clin. Chem., Vol. 18, No. 6, pp. 499-502 (1972).

[1] = calculated according to Friedewald et al.
[2] = measured during 24 hours following breakfast standard meal

N#C[C@@H]1CCCN1C(=O)CNC12CC3CC(CC(O)(C3)C1)C2 [compound IC]
markedly lowered: levels of LDL [1] | levels of VLDL [1] | levels of total cholesterol [2] | levels of triglyceride [2]
